Source: patent US20240293358A1, “COMPOSITION COMPRISING PPAR-MODULATOR AND AN UROLITHIN DERIVATIVE AND USES THEREOF” (Universite de Bordeaux, priority 0001, published 2024)

Tested on: Costello (CS) zebrafish injected with HRASV12 plasmid
Assay: Phenotype analysis (survival, developmental defects) of Costello zebrafish embryos
Assay type: in vivo, Zebrafish (Danio rerio)
Settings: HRASG12V-embryos; for survival rate: single agent 20 μM by bathing 1 dpf to 5 dpf, 4 days of treatment; for number of defective individuals among alive embryo: single agent 20 μM, vehicle (DMSO) 60%
Experimental: Zebrafish (Danio rerio) embryos were obtained from natural spawnings and raised in embryo medium (E3) (97) at 28.5° C. Embryos were staged as described previously [46]. Starting 5 days post-fertilisation (dpf), embryos were fed daily. […] 1 nl of 12.5 ng/μl of GFP-H-RASV12 plasmid and 12.5 ng/μl of T2 transposase mRNA were co-injected in the first cell of zebrafish eggs. Control embryos were injected with the same volume of PBS. H-RASV12 was expressed in zebrafish embryo under heat shock, 30 mn at 37° C. at 1 day post fertilization (dpf) and embryo expressing GFP at 2 dpf were selected for the study.
The embryo injected with the HRASV12 plasmid were treated daily by bathing from 1 dpf to 5 dpf with respectively 20 μM bezafibrate, 20 μM urolithin A, 20 μM bezafibrate+20 μM urolithin A, 10 μM bezafibrate+5 μM urolithin A, 5 μM bezafibrate+5 μM urolithin A. Control embryos were treated with the same volume of DMSO corresponding to 0.2% of DMSO. The imaging and phenotype analysis of mortality and defects of appearance after plasmid injection were performed on alive embryo anesthetized using ethyl 3-aminobenzoate methanesulfonate, MS-222 (Sigma, Cat. #A-5040) at 200 mg/L at 2 days post fertilization, 3 dpf, 4 dpf and 5 dpf using a ZEISS axiocam stereomicroscope (ZEISS, Germany).
Embryos injected with HRASV12 plasmid were selected at 2 days post fertilization (dpf) following their GFP^+/+ expression. HRASV12 plasmid was activated under a heat shock of embryos at 37° C. for 30 minutes. Embryos were observed daily from 2 dpf to 5 dpf in order to analyze the effect of HRASV12 overexpression on their physiological development (FIG. 1A, 1B).

SMILES	survival rate	number of defective individuals among alive embryo
O=c1oc2cc(O)ccc2c2ccc(O)cc12 [urolithin A]	≤ 65%	43%
CC(C)(Oc1ccc(CCNC(=O)c2ccc(Cl)cc2)cc1)C(=O)O [bezafibrate, 2-(4-{2-[(4-chlorobenzoyl)amino]ethyl}phenoxy)-2-methylpropanoic acid]	up to 70%	45%
